{"source": "patent US20120016011A1", "about": "“RNA Interference Mediated Inhibition of Connective Tissue Growth Factor (CTGF) Gene Expression Using Short Interfering Nucleic Acid (siNA)” (Merck Sharp & Dohme Corp., priority 2009, published 2012)", "key": {"[1]": {"test_system": "CTGF mRNA", "assay": "CTGF mRNA knockdown (Taqman RT-PCR) after siNA transfection of human NHLF cells", "assay_type": "cell-based", "details": "10 nM siNA, 24 hrs, average of 3 experiments, vs non-targeting control", "protocol": "NHLF (Normal human lung fibroblasts; Lonza cat# CC-2512): Cells were cultured at 37° C. in the presence of 5% CO2 and grown in Fibroblast Basal Medium (Lonza cat# CC-3132) supplemented with 2% FBS and growth factors (provided with the kit) and 100 μg/mL of streptomycin and 100 U/mL penicillin.\n(§1) Cells were plated in all wells of a tissue-culture treated, 96-well plate at a final count of 5000 cells/well in […], of the appropriate culture media. The cells were cultured for 24 hours after plating at 37° C. in the presence of 5% CO2.\n(§2) After 24 hours, complexes containing siNA and RNAiMax were created as follows: A solution of RNAiMax diluted 33-fold in OPTI-MEM was prepared. In parallel, solutions of the siNAs for testing were prepared to a final concentration of 120 nM in OPTI-MEM. After incubation of RNAiMax/OPTI-MEM solution at room temperature for 5 min, an equal volume of the siNA solution and the RNAiMax solution were added together for each of the siNAs.\n(§3) This solution was incubated at room temperature for 20 minutes. After incubation, 20 uL of the solution was added to each of the relevant wells. The final concentration of siNA in each well was 10 nM and the final volume of RNAiMax in each well was 0.3 ul.\n(§4) The time of incubation with the RNAiMax-siNA complexes was 24 hours and there was no change in media between transfection and harvesting, unless otherwise indicated.\n(§5) RNA was extracted from a 96-well plate using the TaqMan® Gene Expression Cells-to-CT™ Kit (Cat# 4399002) with a modified protocol. Briefly, a 60 uL (1 plate) or 110 uL (2 plates) of the Lysis Solution with DNase I was dispensed into each well of the Lysis Buffer Plate (twin.tec full skirt plate). The lysis buffer and stop plates were stored at 4° C. until the cells were washed.\n(§6) The plate was spun at 1100 rpm for 5 minutes. The culture medium was aspirated and discarded from the wells of the culture plate. The lysis was performed automatically using a BioMek FX instrument and method. After the Biomek method was completed, the lysis plate was incubated for 2 min. at room temperature. The lysis plate can be stored for 2 hours at 4° C., or at −20° C. or −80° C. for two months.\n(§7) Each well of the reverse transcription plate required 10 uL of 2× reverse transcriptase Buffer, 1 uL of 20× reverse transcription enzyme and 2 uL of nuclease-free water. The reverse transcription master mix was prepared by mixing 2× reverse transcription buffer, 20× reverse transcription enzyme mix, and nuclease-free water. 13 uL of the reverse transcription master mix was dispensed into each well of the reverse transcription plate (semi-skirted). A separate reverse transcription plate was prepared for each cell plate. The plate was loaded onto a Biomek NX or Biomek FX Dual -96 and the Biomek method was run. The program is programmed to automatically added 7 uL of lysate from the cell lysis procedure described above into each well of the reverse transcription plate. The plate is sealed and spun on a centrifuge (1000 rpm for 30 seconds) to settle the contents to the bottom of the reverse transcription plate. The plate is placed in a thermocycler at 37° C. for 60 min, 95° C. for 5 min, and 4° C. until the plate is removed from the thermocycler. Upon removal, if not used immediately, the plate was frozen at −20° C.\n(§8) A series of probes and primers were used to detect the various mRNA transcripts of the genes of β-Actin (human cell line only), and of CTGF and GAPDH in mouse and human cell lines. All Taqman probes and primers for the experiments here-in described were supplied as pre-validated sets by Applied Biosystems, Inc. (see Table 3).\nThe assays were performed on an ABI 7900 instrument, according to the manufacturer's instructions. A TaqMan Gene Expression Master Mix (provided in the Cells-to-CT™, Applied Biosystems, Cat # 4399002) was used. The PCR reactions were carried out at 50° C. for 2 min, 95° C. for 20 min followed by 40 cycles at 95° C. for 15 secs and 60° C. for 1 min. […]"}, "[2]": {"test_system": "CTGF mRNA", "assay": "CTGF mRNA knockdown (Taqman RT-PCR) after siNA transfection of mouse NIH 3T3 cells", "assay_type": "cell-based", "details": "mouse NIH3T3 cells, 10 nM siNA, 24 hrs, average of 3 experiments, vs non-targeting control", "protocol": "NIH 3T3 (mouse; ATCC cat# CRL-1658): Cells were cultured at 37° C. in the presence of 5% CO2 and grown in Dulbecco's modified Eagle's medium (DMEM) with 4 mM L-glutamine adjusted to contain 1.5 g/L sodium bicarbonate and 4.5 g/L glucose and supplemented with fetal bovine serum at a final concentration of 10%, 100 μg/mL of streptomycin, and 100 U/mL penicillin.\nas §1, §2, §3, §4, §5, §6, §7, §8\nThe assays were performed on an ABI 7900 instrument, according to the manufacturer's instructions. A TaqMan Gene Expression Master Mix (provided in the Cells-to-CT™, Applied Biosystems, Cat # 4399002) was used. […]"}}, "note": "[invAb] = inverted abasic unit; m = 2'-O-methyl; r = 2'-OH (RNA); f = 2'-fluoro", "data": [{"substance": "48072-DC: siNA duplex; sense SEQ ID NO: 109 B AGuGuGcAcuGccAAAGAu TTB; antisense SEQ ID NO: 110 AUCuuuGGcAGuGcAcAcuUU (sense AGUGUGCACUGCCAAAGAUTT; antisense AUCUUUGGCAGUGCACACUUU; sense: DNA at AGT, 2'-fluoro at CU, [invAb] at 5' end, 3' end, backbone not given here; antisense: sugars from the 5' end rrrfffmmfmmfmfmfmffmm, backbone not given here)", "values": [{"measurement": "% KD Human", "setting": "[1]", "value": "−8 ± 12", "unit": "%"}, {"measurement": "% KD Mouse", "setting": "[2]", "value": "14 ± 6", "unit": "%"}]}, {"substance": "48073-DC: siNA duplex; sense SEQ ID NO: 111 B GGAGAcAuGGcGuAAAGcc TTB; antisense SEQ ID NO: 112 GGCuuuAcGccAuGucuccUU (sense GGAGACAUGGCGUAAAGCCTT; antisense GGCUUUACGCCAUGUCUCCUU; sense: DNA at AGT, 2'-fluoro at CU, [invAb] at 5' end, 3' end, backbone not given here; antisense: sugars from the 5' end rrrfffmfmffmfmfffffmm, backbone not given here)", "values": [{"measurement": "% KD Human", "setting": "[1]", "value": "7 ± 7", "unit": "%"}, {"measurement": "% KD Mouse", "setting": "[2]", "value": "25 ± 8", "unit": "%"}]}, {"substance": "48045-DC: siNA duplex; sense SEQ ID NO: 55 B cuGAcGGcGAGGucAuGAA TTB; antisense SEQ ID NO: 56 UUCAuGAccucGccGucAGUU (sense CUGACGGCGAGGUCAUGAATT; antisense UUCAUGACCUCGCCGUCAGUU; sense: DNA at AGT, 2'-fluoro at CU, [invAb] at 5' end, 3' end, backbone not given here; antisense: sugars from the 5' end rrrmfmmffffmffmffmmmm, backbone not given here)", "values": [{"measurement": "% KD Human", "setting": "[1]", "value": "18 ± 4", "unit": "%"}, {"measurement": "% KD Mouse", "setting": "[2]", "value": "19 ± 4", "unit": "%"}]}, {"substance": "48066-DC: siNA duplex; sense SEQ ID NO: 97 B AcAGuuuAcAcuuGAcAGu TTB; antisense SEQ ID NO: 98 ACUGucAAGuGuAAAcuGuUU (sense ACAGUUUACACUUGACAGUTT; antisense ACUGUCAAGUGUAAACUGUUU; sense: DNA at AGT, 2'-fluoro at CU, [invAb] at 5' end, 3' end, backbone not given here; antisense: sugars from the 5' end rrrmffmmmfmfmmmffmfmm, backbone not given here)", "values": [{"measurement": "% KD Human", "setting": "[1]", "value": "17 ± 7", "unit": "%"}, {"measurement": "% KD Mouse", "setting": "[2]", "value": "80 ± 1", "unit": "%"}]}, {"substance": "48049-DC: siNA duplex; sense SEQ ID NO: 63 B cGuGuGcAccGccAAAGAu TTB; antisense SEQ ID NO: 64 AUCuuuGGcGGuGcAcAcGUU (sense CGUGUGCACCGCCAAAGAUTT; antisense AUCUUUGGCGGUGCACACGUU; sense: DNA at AGT, 2'-fluoro at CU, [invAb] at 5' end, 3' end, backbone not given here; antisense: sugars from the 5' end rrrfffmmfmmfmfmfmfmmm, backbone not given here)", "values": [{"measurement": "% KD Human", "setting": "[1]", "value": "27 ± 2", "unit": "%"}, {"measurement": "% KD Mouse", "setting": "[2]", "value": "−9 ± 6", "unit": "%"}]}, {"substance": "48050-DC: siNA duplex; sense SEQ ID NO: 65 B cuGccuGGuccAGAccAcA TTB; antisense SEQ ID NO: 66 UGUGGucuGGAccAGGcAGUU (sense CUGCCUGGUCCAGACCACATT; antisense UGUGGUCUGGACCAGGCAGUU; sense: DNA at AGT, 2'-fluoro at CU, [invAb] at 5' end, 3' end, backbone not given here; antisense: sugars from the 5' end rrrmmfffmmmffmmmfmmmm, backbone not given here)", "values": [{"measurement": "% KD Human", "setting": "[1]", "value": "3 ± 18", "unit": "%"}, {"measurement": "% KD Mouse", "setting": "[2]", "value": "−13 ± 5", "unit": "%"}]}, {"substance": "48056-DC: siNA duplex; sense SEQ ID NO: 77 B cuGuGccuGccAuuAcAAc TTB; antisense SEQ ID NO: 78 GUUGuAAuGGcAGGcAcAGUU (sense CUGUGCCUGCCAUUACAACTT; antisense GUUGUAAUGGCAGGCACAGUU; sense: DNA at AGT, 2'-fluoro at CU, [invAb] at 5' end, 3' end, backbone not given here; antisense: sugars from the 5' end rrrmfmmfmmfmmmfmfmmmm, backbone not given here)", "values": [{"measurement": "% KD Human", "setting": "[1]", "value": "6 ± 7", "unit": "%"}, {"measurement": "% KD Mouse", "setting": "[2]", "value": "20 ± 6", "unit": "%"}]}, {"substance": "48041-DC: siNA duplex; sense SEQ ID NO: 47 B GAuucccAcccAAuucAAA TTB; antisense SEQ ID NO: 48 UUUGAAuuGGGuGGGAAucUU (sense GAUUCCCACCCAAUUCAAATT; antisense UUUGAAUUGGGUGGGAAUCUU; sense: DNA at AGT, 2'-fluoro at CU, [invAb] at 5' end, 3' end, backbone not given here; antisense: sugars from the 5' end rrrmmmffmmmfmmmmmffmm, backbone not given here)", "values": [{"measurement": "% KD Human", "setting": "[1]", "value": "73±4", "unit": "%"}, {"measurement": "% KD Mouse", "setting": "[2]", "value": "13 ± 3", "unit": "%"}]}, {"substance": "48059-DC: siNA duplex; sense SEQ ID NO: 83 B AcGAAcucAuuAGAcuAuA TTB; antisense SEQ ID NO: 84 UAUAGucuAAuGAGuucGuUU (sense ACGAACUCAUUAGACUAUATT; antisense UAUAGUCUAAUGAGUUCGUUU; sense: DNA at AGT, 2'-fluoro at CU, [invAb] at 5' end, 3' end, backbone not given here; antisense: sugars from the 5' end rrrmmfffmmfmmmfffmfmm, backbone not given here)", "values": [{"measurement": "% KD Human", "setting": "[1]", "value": "25 ± 9", "unit": "%"}, {"measurement": "% KD Mouse", "setting": "[2]", "value": "80 ± 4", "unit": "%"}]}, {"substance": "48062-DC: siNA duplex; sense SEQ ID NO: 89 B ccAcucuGccAGuGGAGuu TTB; antisense SEQ ID NO: 90 AACuccAcuGGcAGAGuGGUU (sense CCACUCUGCCAGUGGAGUUTT; antisense AACUCCACUGGCAGAGUGGUU; sense: DNA at AGT, 2'-fluoro at CU, [invAb] at 5' end, 3' end, backbone not given here; antisense: sugars from the 5' end rrrfffmffmmfmmmmfmmmm, backbone not given here)", "values": [{"measurement": "% KD Human", "setting": "[1]", "value": "−1 ± 18", "unit": "%"}, {"measurement": "% KD Mouse", "setting": "[2]", "value": "12 ± 2", "unit": "%"}]}, {"substance": "48052-DC: siNA duplex; sense SEQ ID NO: 69 B GcGAGGucAuGAAGAAGAA TTB; antisense SEQ ID NO: 70 UUCuucuucAuGAccucGcUU (sense GCGAGGUCAUGAAGAAGAATT; antisense UUCUUCUUCAUGACCUCGCUU; sense: DNA at AGT, 2'-fluoro at CU, [invAb] at 5' end, 3' end, backbone not given here; antisense: sugars from the 5' end rrrffffffmfmmffffmfmm, backbone not given here)", "values": [{"measurement": "% KD Human", "setting": "[1]", "value": "27 ± 16", "unit": "%"}, {"measurement": "% KD Mouse", "setting": "[2]", "value": "41 ± 4", "unit": "%"}]}]}
